From patent US6051582A, “Compounds useful for inhibition of farnesyl protein transferase” (Schering Corporation, priority 1998, dated 2000)

Tests used:
[1] = target: farnesyl protein transferase (Homo sapiens, UniProt P49354+P49356); experiment: FPT inhibition, in vitro enzyme assay; format: biochemical
Protocol: (§1) FPT IC50 (inhibition of farnesyl protein transferase, in vitro enzyme assay) and COS Cell IC50 (Cell-Based Assay) were determined following the assay procedures described in WO 95/10516, published Apr. 20, 1995. GGPT IC50 (inhibition of geranylgeranyl protein transferase, in vitro enzyme assay), Cell Mat Assay, and anti-tumor activity (in vivo anti-tumor studies) could be determined by the assay procedures described in WO 95/10516. The disclosure of WO 95/10516 is incorporated herein by reference thereto.

[2] = tested on: COS Cell; experiment: COS Cell-Based Assay
Protocol: as §1

Sequence of farnesyl protein transferase (P49356 whole entry, one chain of several): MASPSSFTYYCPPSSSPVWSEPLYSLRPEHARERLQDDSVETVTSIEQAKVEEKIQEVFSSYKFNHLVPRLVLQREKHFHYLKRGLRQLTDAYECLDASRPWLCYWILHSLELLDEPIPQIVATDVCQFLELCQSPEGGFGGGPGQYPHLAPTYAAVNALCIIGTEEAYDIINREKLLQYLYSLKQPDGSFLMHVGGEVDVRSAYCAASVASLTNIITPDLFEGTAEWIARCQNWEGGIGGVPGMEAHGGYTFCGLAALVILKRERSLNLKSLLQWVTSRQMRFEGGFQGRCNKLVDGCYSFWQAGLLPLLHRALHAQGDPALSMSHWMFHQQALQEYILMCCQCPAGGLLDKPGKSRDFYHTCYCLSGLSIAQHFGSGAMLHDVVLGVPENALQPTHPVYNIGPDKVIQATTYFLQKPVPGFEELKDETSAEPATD

Compound `CC1(CC(=O)N2CCC([C@H]3c4ncc(Br)cc4CCc4cc(Cl)cc(Br)c43)CC2)CCN(S(C)(=O)=O)CC1` [Example 1] has an IC50 [1] of 0.019 µM and an IC50 [2] of 0.022 µM.
